Earlier results on 2 molecules are cited in patent EP3932402A1, “ADAM17 INHIBITORS FOR USE IN THE PREVENTION AND/OR TREATMENT OF COVID-19” (Max-Delbrück-Centrum für Molekulare Medizin in der …, priority 2020, dated 2022).

In one data set the target is T1, ADAM17 (Homo sapiens, UniProt P78536).
T1 construct: host or cells: patients (endogenous enzyme)
The note with it: Moss et al., 2008.

The next data set has as its system ADAM17, ADAM10. As to conditions: in combination with trastuzumab; Newton et al.

T1 sequence (P78536 215-824): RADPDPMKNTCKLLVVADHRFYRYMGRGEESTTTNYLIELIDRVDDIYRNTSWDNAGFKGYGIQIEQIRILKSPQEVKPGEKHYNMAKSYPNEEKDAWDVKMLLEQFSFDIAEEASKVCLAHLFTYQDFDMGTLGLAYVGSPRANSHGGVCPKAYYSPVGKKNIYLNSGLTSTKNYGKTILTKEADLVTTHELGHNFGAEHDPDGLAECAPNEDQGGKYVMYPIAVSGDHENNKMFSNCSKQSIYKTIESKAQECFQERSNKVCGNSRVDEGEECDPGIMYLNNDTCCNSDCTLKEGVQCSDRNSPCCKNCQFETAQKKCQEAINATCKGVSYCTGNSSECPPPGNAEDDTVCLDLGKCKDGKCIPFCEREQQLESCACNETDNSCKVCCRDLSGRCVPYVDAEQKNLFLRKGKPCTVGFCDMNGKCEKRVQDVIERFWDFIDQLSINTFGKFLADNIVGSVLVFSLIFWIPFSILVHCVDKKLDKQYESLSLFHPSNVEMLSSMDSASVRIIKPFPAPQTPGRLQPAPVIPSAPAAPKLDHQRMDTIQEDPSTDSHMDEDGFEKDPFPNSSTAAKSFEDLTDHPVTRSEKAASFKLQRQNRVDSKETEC

Regarding `CON(Cc1ccc(F)cc1)C(=O)C=C1OC(C)(C)OC1=O` [BMS-561392, Acetamide, 2-(2,2-dimethyl-5-oxo-1,3-dioxolan-4-ylidene)-N-((4-fluorophenyl)methyl)-N-methoxy-], the “reason for discontinued development” value on ADAM17 is “concerns over liver toxicity”. In addition, the “proof of concept in sepsis and rheumatoid arthritis” value at ADAM17 (clinical Phase II) is on record as “beneficial effects”.

As for `COC(=O)N1CC2(CC2)C[C@H](C(=O)NO)[C@H]1C(=O)N1CCN(c2ccccc2)CC1` [INCB7839, methyl (6S,7S)-7-(hydroxycarbamoyl)-6-(4-phenylpiperazine-1-carbonyl)-5-azaspiro[2.5]octane-5-carboxylate], the pro-coagulant effects entry (adult patients) is “observed in some adult patients”. Besides, where the note is “solid tumors and breast cancer”, the “deep venous thrombosis, incidence” value is recorded as 9/41; the dose limiting toxicity result is on record as “deep venous thrombosis”; the “severity of adverse effects” value is “mild to moderate”. Further, in the data set with ADAM17, ADAM10, the HER2 cleavage entry is “markedly reduced” and the clinical response rate entry is given as “markedly reduced”.
